Experimental data as given in patent US9315503B2, “Kinase inhibitors” (CHIESI FARMACEUTICI S.p.A., priority 2011, dated 2016).
Where a name gives a salt, the structure may show the parent alone.

Biological target: T1, p38alpha (Homo sapiens, UniProt Q16539)
T1 construct: purchased Invitrogen PV3304
Test: P38Alpha enzyme inhibition assay (Alphascreen kinase activity assay)
Assay type: biochemical
Conditions: 100 pM p38alpha, 250 μM ATP, 2 hours pre-incubation at 25° C., read-out: p38α inhibition (IC50 values)
Protocol: P38Alpha Enzyme Inhibition Assay.
The inhibitory activity of compounds was determined using an Alphascreen® (Perkin Elmer) based kinase activity assay. Kinase reactions consisted of 25 mM HEPES pH 7.5, 10 mM MgCl2, 100 μM Na3VO4, 2 mM DTT, 0.05 mg/ml Tween 20, 100 pM p38alpha (Invitrogen, PV3304), 1% DMSO and 0.3 μg/ml ATF-2 fusion protein (New England Biolabs, 9224). Compounds were incubated under these conditions for 2 hours, at 25° C., prior to the initiation of the kinase activity by the addition of the 250 μM ATP. Reaction volumes were 20 uL. After 1 hr at 25° C. reactions were stopped by the adding 10 uL of 25 mM HEPES pH 7.5 containing 62.5 mM EDTA, 0.05% Triton X-100, 10% BSA and 0.83 ng/uL anti-phospho-ATF2 antibody (Abeam, ab28812). Detection was performed by measuring luminescence following the addition of Alphascreen Donor beads (Perkin Elmer 6765300) and Protein A Alphascreen Acceptor beads (Perkin Elmer 6760137), both at a final concentration of 20 ug/ml. IC50 values were determined from concentration-response curves.

T1 sequence (Q16539 whole entry): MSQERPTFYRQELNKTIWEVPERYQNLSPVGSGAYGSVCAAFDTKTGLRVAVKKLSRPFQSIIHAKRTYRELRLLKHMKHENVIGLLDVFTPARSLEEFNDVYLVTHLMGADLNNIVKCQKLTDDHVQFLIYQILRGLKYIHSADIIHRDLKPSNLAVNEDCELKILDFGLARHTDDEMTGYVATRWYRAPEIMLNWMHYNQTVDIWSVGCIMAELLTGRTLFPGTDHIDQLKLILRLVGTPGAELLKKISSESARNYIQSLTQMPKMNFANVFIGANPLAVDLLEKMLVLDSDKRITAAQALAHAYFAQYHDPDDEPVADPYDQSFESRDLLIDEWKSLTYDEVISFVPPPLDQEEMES

IC50 | Structure (SMILES)
< 10 nM | C[C@H]1CCCCN1c1nnc2ccc(O[C@@H]3CC[C@H](NC(=O)Nc4cc(C(C)(C)C)nn4-c4cccc(OCCN5CCOCC5)c4)c4ccccc43)cn12 [Example 156, 1-{5-tert-Butyl-2-[3-(2-morpholin-4-yl-ethoxy)-phenyl]-2H-pyrazol-3-yl}-3-{(1S,4R)-4-[3-((S)-2-methyl-piperidin-1-yl)-[1,2,4]triazolo[4,3-a]pyridin-6-yloxy]-1,2,3,4-tetrahydro-naphthalen-1-yl}-urea partial formate salt]
< 10 nM | C[C@H]1CCCCN1c1nnc2ccc(O[C@@H]3CC[C@H](NC(=O)Nc4cc(C(C)(C)C)nn4-c4cccc(CCN5CCCN(C)CC5)c4)c4ccccc43)cn12 [Example 138, 1-(5-tert-Butyl-2-{3-[2-(4-methyl-[1,4]diazepan-1-yl)-ethyl]-phenyl}-2H-pyrazol-3-yl)-3-{(1S,4R)-4-[3-((S)-2-methyl-piperidin-1-yl)-[1,2,4]triazolo[4,3-a]pyridin-6-yloxy]-1,2,3,4-tetrahydro-naphthalen-1-yl}-urea formate salt]
< 10 nM | Cc1ccc(-n2nc(C(C)(C)C)cc2NC(=O)N[C@H]2CC[C@@H](Oc3ccc4nnc(N(C)CCN5CCOCC5)n4c3)c3ccccc32)cc1 [Example 45, 1-(5-tert-Butyl-2-p-tolyl-2H-pyrazol-3-yl)-3-((1S,4R)-4-{3-[methyl-(2-morpholin-4-yl-ethyl)-amino]-[1,2,4]triazolo[4,3-a]pyridin-6-yloxy}-1,2,3,4-tetrahydro-naphthalen-1-yl)-urea]
< 10 nM | C[C@H]1CCCCN1c1nnc2ccc(O[C@@H]3CC[C@H](NC(=O)Nc4cc(C(C)(C)C)nn4-c4ccc(CN5CCOCC5)cc4)c4ccccc43)cn12 [Example 176, 1-[5-tert-Butyl-2-(4-morpholin-4-ylmethyl-phenyl)-2H-pyrazol-3-yl]-3-{(1S,4R)-4-[3-((S)-2-methyl-piperidin-1-yl)-[1,2,4]triazolo[4,3-a]pyridin-6-yloxy]-1,2,3,4-tetrahydro-naphthalen-1-yl}-urea]
< 10 nM | C[C@H]1CCCCN1c1nnc2ccc(O[C@@H]3CC[C@H](NC(=O)Nc4cc(C(C)(C)C)nn4-c4cccc(CN5CCCC5)c4)c4ccccc43)cn12 [Example 171, 1-[5-tert-Butyl-2-(3-pyrrolidin-1-ylmethyl-phenyl)-2H-pyrazol-3-yl]-3-{(1S,4R)-4-[3-((S)-2-methyl-piperidin-1-yl)-[1,2,4]triazolo[4,3-a]pyridin-6-yloxy]-1,2,3,4-tetrahydro-naphthalen-1-yl}-urea formate salt]
< 10 nM | C[C@H]1CCCCN1c1nnc2ccc(O[C@@H]3CC[C@H](NC(=O)Nc4cc(C(C)(C)C)nn4-c4cccc(OCCN5CCC(F)CC5)c4)c4ccccc43)cn12 [Example 159, 1-{5-tert-Butyl-2-{3-[2-(4-fluoropiperidin-1-yl)-ethoxy]-phenyl}-2H-pyrazol-3-yl}-3-{(1S,4R)-4-[3-((S)-2-methyl-piperidin-1-yl)-[1,2,4]triazolo[4,3-a]pyridin-6-yloxy]-1,2,3,4-tetrahydro-naphthalen-1-yl}-urea formate salt]
< 10 nM | C[C@H]1CCCCN1c1nnc2ccc(O[C@@H]3CC[C@H](NC(=O)Nc4cc(C(C)(C)C)nn4-c4ccc(CN5CCN(C)CC5)cc4)c4ccccc43)cn12 [Example 178, 1-{5-tert-Butyl-2-[4-(4-methyl-piperazin-1-ylmethyl)-phenyl]-2H-pyrazol-3-yl}-3-{(1S,4R)-4-[3-((S)-2-methyl-piperidin-1-yl)-[1,2,4]triazolo[4,3-a]pyridin-6-yloxy]-1,2,3,4-tetrahydro-naphthalen-1-yl}-urea partial formate salt]
< 10 nM | C[C@H]1CCCCN1c1nnc2ccc(O[C@@H]3CC[C@H](NC(=O)Nc4cc(C(C)(C)C)nn4-c4cccc(CCN5CCOCC5)c4)c4ccccc43)cn12 [Example 131, 1-{5-tert-Butyl-2-[3-(2-morpholin-4-yl-ethyl)-phenyl]-2H-pyrazol-3-yl}-3-{(1S,4R)-4-[3-((S)-2-methyl-piperidin-1-yl)-[1,2,4]triazolo[4,3-a]pyridin-6-yloxy]-1,2,3,4-tetrahydro-naphthalen-1-yl}-urea formate salt]
< 10 nM | C[C@H]1CCCCN1c1nnc2ccc(O[C@@H]3CC[C@H](NC(=O)Nc4cc(C(C)(C)C)nn4-c4cccc(CCN5CCCC5)c4)c4ccccc43)cn12 [Example 132, 1-{5-tert-Butyl-2-[3-(2-pyrrolidin-1-yl-ethyl)-phenyl]-2H-pyrazol-3-yl}-3-{(1S,4R)-4-[3-((S)-2-methyl-piperidin-1-yl)-[1,2,4]triazolo[4,3-a]pyridin-6-yloxy]-1,2,3,4-tetrahydro-naphthalen-1-yl}-urea formate salt]
< 10 nM | C[C@H]1CCCCN1c1nnc2ccc(O[C@@H]3CC[C@H](NC(=O)Nc4cc(C(C)(C)C)nn4-c4cccc(OCCN5C6CCCC5CC6)c4)c4ccccc43)cn12 [Example 162, 1-(2-{3-[2-(8-Aza-bicyclo[3.2.1]oct-8-yl)-ethoxy]-phenyl}-5-tert-butyl-2H-pyrazol-3-yl)-3-{(1S,4R)-4-[3-((S)-2-methyl-piperidin-1-yl)-[1,2,4]triazolo[4,3-a]pyridin-6-yloxy]-1,2,3,4-tetrahydro-naphthalen-1-yl}-urea formate salt]
< 10 nM | C[C@@H]1CCC[C@H](C)N1c1nnc2ccc(O[C@@H]3CC[C@H](NC(=O)Nc4cc(C(C)(C)C)nn4-c4cccc(CN5CCN(C)CC5)c4)c4ccccc43)cn12 [Example 143, 1-{5-tert-Butyl-2-[3-(4-methyl-piperazin-1-ylmethyl)-phenyl]-2H-pyrazol-3-yl}-3-{(1S,4R)-4-[3-((2S,6R)-2,6-dimethyl-piperidin-1-yl)-[1,2,4]triazolo[4,3-a]pyridin-6-yloxy]-1,2,3,4-tetrahydro-naphthalen-1-yl}-urea formate salt]
< 10 nM | C[C@H]1CCCCN1c1nnc2ccc(O[C@@H]3CC[C@H](NC(=O)Nc4cc(C(C)(C)C)nn4-c4cccc(CCN5CCN(C)CC5)c4)c4ccccc43)cn12 [Example 136, 1-(5-tert-Butyl-2-{3-[2-(4-methyl-piperazin-1-yl)-ethyl]-phenyl}-2H-pyrazol-3-yl)-3-{(1S,4R)-4-[3-((S)-2-methyl-piperidin-1-yl)-[1,2,4]triazolo[4,3-a]pyridin-6-yloxy]-1,2,3,4-tetrahydro-naphthalen-1-yl}-urea formate salt]
< 10 nM | CCN(CC)CCOc1cccc(-n2nc(C(C)(C)C)cc2NC(=O)N[C@H]2CC[C@@H](Oc3ccc4nnc(N5CCCC[C@@H]5C)n4c3)c3ccccc32)c1 [Example 155, 1-{5-tert-Butyl-2-[3-(2-diethylamino-ethoxy)-phenyl]-2H-pyrazol-3-yl}-3-{(1S,4R)-4-[3-((S)-2-methyl-piperidin-1-yl)-[1,2,4]triazolo[4,3-a]pyridin-6-yloxy]-1,2,3,4-tetrahydro-naphthalen-1-yl}-urea formate salt]
< 10 nM | C[C@H]1CCCCN1c1nnc2ccc(O[C@@H]3CC[C@H](NC(=O)Nc4cc(C(C)(C)C)nn4-c4cccc(CCN(C)C)c4)c4ccccc43)cn12 [Example 134, 1-{5-tert-Butyl-2-[3-(2-dimethylamino-ethyl)-phenyl]-2H-pyrazol-3-yl}-3-{(1S,4R)-4-[3-((S)-2-methyl-piperidin-1-yl)-[1,2,4]triazolo[4,3-a]pyridin-6-yloxy]-1,2,3,4-tetrahydro-naphthalen-1-yl}-urea formate salt]
< 10 nM | C[C@H]1CCCCN1c1nnc2ccc(O[C@@H]3CC[C@H](NC(=O)Nc4cc(C(C)(C)C)nn4-c4cccc(OCCN5CCCC5)c4)c4ccccc43)cn12 [Example 154, 1-{5-tert-Butyl-2-[3-(2-pyrrolidin-1-yl-ethoxy)-phenyl]-2H-pyrazol-3-yl}-3-{(1S,4R)-4-[3-((S)-2-methyl-piperidin-1-yl)-[1,2,4]triazolo[4,3-a]pyridin-6-yloxy]-1,2,3,4-tetrahydro-naphthalen-1-yl}-urea formate salt]
100 to 500 nM | Cc1ccc(-n2nc(C(C)(C)C)cc2NC(=O)N[C@H]2CC[C@@H](OCCN3CCOCC3)c3ccccc32)cc1 [Example 32, 1-(5-tert-Butyl-2-p-tolyl-2H-pyrazol-3-yl)-3-[(1S,4R)-4-(2-morpholin-4-yl-ethoxy)-1,2,3,4-tetrahydro-naphthalen-1-yl]-urea]
< 10 nM | C[C@H]1CCCCN1c1nnc2ccc(O[C@@H]3CC[C@H](NC(=O)Nc4cc(C(C)(C)C)nn4-c4cccc(OCCN5C6CCC5COC6)c4)c4ccccc43)cn12 [Example 166, 1-(5-tert-Butyl-2-{3-[2-(3-oxa-8-aza-bicyclo[3.2.1]oct-8-yl)-ethoxy]-phenyl}-2H-pyrazol-3-yl)-3-{(1S,4R)-4-[3-((S)-2-methyl-piperidin-1-yl)-[1,2,4]triazolo[4,3-a]pyridin-6-yloxy]-1,2,3,4-tetrahydro-naphthalen-1-yl}-urea formate salt]
< 10 nM | C[C@H]1CCCCN1c1nnc2ccc(O[C@@H]3CC[C@H](NC(=O)Nc4cc(C(C)(C)C)nn4-c4ccc(CN5CCCCC5)cc4)c4ccccc43)cn12 [Example 182, 1-[5-tert-Butyl-2-(4-piperidin-1-ylmethyl-phenyl)-2H-pyrazol-3-yl]-3-{(1S,4R)-4-[3-((S)-2-methyl-piperidin-1-yl)-[1,2,4]triazolo[4,3-a]pyridin-6-yloxy]-1,2,3,4-tetrahydro-naphthalen-1-yl}-urea formate salt]
